One series has as its target T1, EGFR^wt-TK (Homo sapiens, UniProt P00533).
T1 construct: purchased
Put plainly: In vitro EGFR^wt-TK assay (ELISA kit). In kind it is biochemical. To be noted: mean ± SD of three replicates; for inhibition at 1 µM: read-out: EGFR^wt-TK inhibition rate; for inhibition at 1 µM / EGFR^wt-TK inhibition rate: 1 μM.

Another series deals with A549 cells. Put plainly: In vitro activity against cancer cell lines (MTT), A549. In kind it is cell-based. The following applies: Homo sapiens, mean ± SD of three replicates.
The subject of the next series is MCF-7 cells. The experiment in a line: In vitro activity against cancer cell lines (MTT), MCF-7. In kind it is cell-based. The following applies: Homo sapiens, MCF7, mean ± SD of three replicates.
A further series deals with PC-3 cells. Put plainly: In vitro activity against cancer cell lines (MTT), PC-3. In kind it is cell-based. The following applies: Homo sapiens, mean ± SD of three replicates.

T1 sequence (P00533 25-1210): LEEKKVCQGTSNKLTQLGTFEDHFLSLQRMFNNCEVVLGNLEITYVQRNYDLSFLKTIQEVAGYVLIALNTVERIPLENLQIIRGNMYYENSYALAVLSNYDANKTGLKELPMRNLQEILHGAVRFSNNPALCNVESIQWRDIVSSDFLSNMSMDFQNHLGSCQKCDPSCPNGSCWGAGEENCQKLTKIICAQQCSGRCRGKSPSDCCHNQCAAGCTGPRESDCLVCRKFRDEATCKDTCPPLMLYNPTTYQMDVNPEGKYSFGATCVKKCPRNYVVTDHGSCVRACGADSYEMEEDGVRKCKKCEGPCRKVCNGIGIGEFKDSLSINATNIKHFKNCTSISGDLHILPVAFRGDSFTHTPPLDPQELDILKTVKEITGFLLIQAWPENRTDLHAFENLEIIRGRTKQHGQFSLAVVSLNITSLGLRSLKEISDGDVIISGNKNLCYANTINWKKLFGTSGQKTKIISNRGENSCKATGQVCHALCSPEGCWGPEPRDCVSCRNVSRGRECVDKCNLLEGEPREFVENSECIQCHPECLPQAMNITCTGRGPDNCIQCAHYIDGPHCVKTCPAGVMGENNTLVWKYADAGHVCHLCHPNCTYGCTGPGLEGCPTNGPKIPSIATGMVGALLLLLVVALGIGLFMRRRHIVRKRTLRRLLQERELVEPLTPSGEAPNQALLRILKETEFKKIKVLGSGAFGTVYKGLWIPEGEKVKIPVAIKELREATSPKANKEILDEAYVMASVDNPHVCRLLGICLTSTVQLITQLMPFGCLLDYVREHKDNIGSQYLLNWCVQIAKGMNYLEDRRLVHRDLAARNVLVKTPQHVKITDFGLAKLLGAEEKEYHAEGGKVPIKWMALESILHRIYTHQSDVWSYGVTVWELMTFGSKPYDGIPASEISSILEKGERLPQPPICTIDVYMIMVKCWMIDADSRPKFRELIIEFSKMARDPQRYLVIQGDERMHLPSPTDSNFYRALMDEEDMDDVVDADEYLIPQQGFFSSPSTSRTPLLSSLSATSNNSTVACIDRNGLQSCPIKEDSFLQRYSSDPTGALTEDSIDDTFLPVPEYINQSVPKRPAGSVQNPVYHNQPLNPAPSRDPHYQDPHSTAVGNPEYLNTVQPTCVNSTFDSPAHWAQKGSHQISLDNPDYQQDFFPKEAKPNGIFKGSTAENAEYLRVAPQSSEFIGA
Source text for A549 cells: (§1) Co., Ltd. A549 (Human non-small-cell lung cancer cell line) cells, MCF-7 (Human breast cancer
(§2) cell line) cells, and PC-3 (Human prostate cancer cell line) cells. They were all purchased from the
(§3) Shanghai Cell Bank of the Chinese Academy of Sciences. NRK-52E (Normal rat kidney cell line)
(§4) cells donated by Guizhou Medicinal University were also used to evaluate the cytotoxicity.
Procedure for EGFR^wt-TK: The IC50 values of target compounds against EGFR^wt were calculated from the dose − response curve under Graph-Pad Prism 9, which was tested at the different concentrations.
Source text for MCF-7 cells: as §1, §2, §3, §4
Source text for PC-3 cells: as §1, §2, §3, §4

Broadly, the inhibition is the share of the control response that was lost under treatment. For orientation: IC50 means the concentration that gives 50% inhibition. Low values mean inhibition by little substance, high ones a need for much substance. As usually defined, the melting point is the temperature, or range, at which the solid turns liquid. `CNC(=O)c1sccc1Nc1nc(Nc2ccc(NC(=O)c3ccccc3)cc2)ncc1C(F)(F)F` [Compound 9a, 3-[2-(4-Benzoylamino-phenylamino)-5-trifluoromethyl-pyrimidin-4-ylamino]-thiophene-2-carboxylic acid methylamide] yielded a melting point of 212.5 to 213.8 °C. In addition, the inhibition at 1 µM at EGFR^wt-TK was 32.5 ± 2.56%. The IC50 in the series with A549 cells came out at 8.51 ± 0.94 µM. Besides, the half-maximal inhibitory concentration (IC50) with MCF-7 cells is 11.9 ± 1.36 µM. The same molecule showed a half-inhibitory concentration (IC50) in the series with PC-3 cells of 14.6 ± 0.83 µM.

`CNC(=O)c1sccc1Nc1nc(Nc2ccc(NC(=O)c3ccccc3F)cc2)ncc1C(F)(F)F` [Compound 9b, 3-{2-[4-(2-Fluoro-benzoylamino)-phenylamino]-5-trifluoromethyl-pyrimidin-4-ylamino}-thiophene-2-carboxylic acid methylamide] displayed a melting point of 213.3 to 215.4 °C. The inhibition at 1 µM on EGFR^wt-TK is 46.3 ± 1.85%. 4.03 ± 0.47 µM corresponded to half-maximal inhibition in the series on A549 cells (IC50). The molecule further registered an IC50 with MCF-7 cells of 6.05 ± 0.82 µM. In the series on PC-3 cells, this molecule had an IC50 of 11.2 ± 1.68 µM.

`CNC(=O)c1sccc1Nc1nc(Nc2ccc(NC(=O)c3cccc(F)c3)cc2)ncc1C(F)(F)F` [Compound 9c, 3-{2-[4–(3-Fluoro-benzoylamino)-phenylamino]-5-trifluoromethyl-pyrimidin-4-ylamino}-thiophene-2-carboxylic acid methylamide] gave a melting point of 239.8 to 241.5 °C. Besides, at EGFR^wt-TK, the “EGFR^wt-TK inhibition rate” value was 55.48 ± 1.71%, the inhibition at 1 µM is more than 50% and the IC50 amounted to 0.31 ± 0.095 µM. The same molecule gave a half-maximal inhibitory concentration (IC50) with A549 cells of 2.23 ± 0.42 µM. Further, in the series on MCF-7 cells, half-maximal inhibition (IC50) required 5.32 ± 0.74 µM. Moreover, the IC50 in the series on PC-3 cells came to 16.4 ± 2.27 µM.

In turn, `CNC(=O)c1sccc1Nc1nc(Nc2ccc(NC(=O)c3ccc(F)cc3)cc2)ncc1C(F)(F)F` [Compound 9d, 3-{2-[4-(4-Fluoro-benzoylamino)-phenylamino]-5-trifluoromethyl-pyrimidin-4-ylamino}-thiophene-2-carboxylic acid methylamide] had a melting point of 217.2 to 219.3 °C. The inhibition at 1 µM at EGFR^wt-TK worked out at 49.38 ± 0.47%. Also, in the series with A549 cells, the IC50 is 3.75 ± 0.55 µM. The IC50 with PC-3 cells amounted to 16.7 ± 1.53 µM.

The molecule `CNC(=O)c1sccc1Nc1nc(Nc2ccc(NC(=O)c3ccc(F)c(F)c3)cc2)ncc1C(F)(F)F` [Compound 9e, 3-{2-[4-(3,4-Difluoro-benzoylamino)-phenylamino]-5-trifluoromethyl-pyrimidin-4-ylamino}-thiophene-2-carboxylic acid methylamide] had a melting point of 218.9 to 219.7 °C. Moreover, at EGFR^wt-TK, the “EGFR^wt-TK inhibition rate” value is recorded as 54.49 ± 1.44%; the inhibition at 1 µM is more than 50%; the midpoint of inhibition, the IC50, lay at 0.44 ± 0.11 µM. In the series with A549 cells, inhibition was half-maximal at 2.77 ± 0.59 µM (IC50). For the same molecule, half-maximal inhibition in the series with PC-3 cells (IC50) was put at 17 ± 1.82 µM.

The molecule `CNC(=O)c1sccc1Nc1nc(Nc2ccc(NC(=O)c3cccc(C(F)(F)F)c3)cc2)ncc1C(F)(F)F` [Compound 9f, 3-{5-Trifluoromethyl-2-[4-(3-trifluoromethyl-benzoylamino)-phenylamino]-pyrimidin-4-ylamino}-thiophene-2-carboxylic acid methylamide] yielded a melting point of 232 to 233.5 °C. Besides, the inhibition at 1 µM on EGFR^wt-TK is 41.1 ± 1.79%. This molecule yielded a half-maximal inhibitory concentration (IC50) with A549 cells of 5.13 ± 0.46 µM. In the series on MCF-7 cells, this molecule displayed an IC50 of 6.54 ± 0.53 µM. Besides, the IC50 in the series on PC-3 cells is 12.2 ± 1.54 µM.

In turn, `CNC(=O)c1sccc1Nc1nc(Nc2ccc(NC(=O)c3ccc(OC)cc3)cc2)ncc1C(F)(F)F` [Compound 9g, 3-{2-[4-(4-Methoxy-benzoylamino)-phenylamino]-5-trifluoromethyl-pyrimidin-4-ylamino}-thiophene-2-carboxylic acid methylamide] yielded a melting point of 229.4 to 230.6 °C. Further, the inhibition at 1 µM at EGFR^wt-TK stood at 28.8 ± 0.62%. In the series on A549 cells, this molecule returned a half-inhibitory concentration (IC50) of 7.63 ± 0.62 µM. This molecule had an IC50 in the series on MCF-7 cells of 10.1 ± 1.18 µM. Further, the IC50 with PC-3 cells was more than 20 µM.

On to `CNC(=O)c1sccc1Nc1nc(Nc2ccc(NC(=O)c3cc(OC)c(OC)c(OC)c3)cc2)ncc1C(F)(F)F` [Compound 9h, 3-{5-Trifluoromethyl-2-[4-(3,4,5-trimethoxy-benzoylamino)-phenylamino]-pyrimidin-4-ylamino}-thiophene-2-carboxylic acid methylamide], for which the melting point is 211.9 to 213.1 °C. For the same molecule, on EGFR^wt-TK, the “EGFR^wt-TK inhibition rate” value is recorded as 56.43 ± 0.51%, the inhibition at 1 µM was more than 50% and the IC50 stood at 0.35 ± 0.062 µM. For the same molecule, the IC50 with A549 cells was found to be 1.66 ± 0.54 µM. The molecule further showed an IC50 with MCF-7 cells of 3.37 ± 0.62 µM. Inhibition in the series with PC-3 cells was half-maximal at 11.3 ± 1.42 µM (IC50).

For the molecule `CCC(=O)Nc1ccc(Nc2ncc(C(F)(F)F)c(Nc3ccsc3C(=O)NC)n2)cc1` [Compound 9i, 3-[2-(4-Propionylamino-phenylamino)-5-trifluoromethyl-pyrimidin-4-ylamino]-thiophene-2-carboxylic acid methylamide], on EGFR^wt-TK, the inhibition at 1 µM is 11.9 ± 0.35%. Besides, the IC50 was 17.8 ± 1.67 µM in the series on A549 cells, more than 20 µM in the series on MCF-7 cells and more than 20 µM with PC-3 cells.

For `CNC(=O)c1sccc1Nc1nc(Nc2ccc(NC(=O)C(C)C)cc2)ncc1C(F)(F)F` [Compound 9j, 3-[2-(4-Isobutyrylamino-phenylamino)-5-trifluoromethyl-pyrimidin-4-ylamino]-thiophene-2-carboxylic acid methylamide], on EGFR^wt-TK, the inhibition at 1 µM stood at 8.76 ± 0.68%. For the same molecule, the IC50 in the series on A549 cells, in the series with MCF-7 cells and with PC-3 cells was more than 20 µM each time.

Regarding `C#CC(=O)Nc1ccc(Nc2ncc(C(F)(F)F)c(Nc3ccsc3C(=O)NC)n2)cc1` [Compound 9k, 3-[2-(4-Propynoylamino-phenylamino)-5-trifluoromethyl-pyrimidin-4-ylamino]-thiophene-2-carboxylic acid methylamide], the “EGFR^wt-TK inhibition rate” value at EGFR^wt-TK is recorded as 55.73 ± 2.14%. Besides, on EGFR^wt-TK, the inhibition at 1 µM was more than 50%. Also, the IC50 against EGFR^wt-TK was determined as 0.48 ± 0.073 µM; in the series on A549 cells, 1.82 ± 0.49 µM; in the series on MCF-7 cells, 4.91 ± 0.83 µM; in the series on PC-3 cells, 15.4 ± 2.38 µM.

Regarding `CNC(=O)c1sccc1Nc1nc(Nc2ccc(NC(=O)C3CC3)cc2)ncc1C(F)(F)F` [Compound 9l, 3-{2-[4-(Cyclopropanecarbonyl-amino)-phenylamino]-5-trifluoromethyl-pyrimidin-4-ylamino}-thiophene-2-carboxylic acid methylamide], the melting point is more than 250 °C. For the same molecule, the inhibition at 1 µM on EGFR^wt-TK worked out at 12.6 ± 1.07%. This molecule also displayed a half-inhibitory concentration (IC50) with A549 cells of 16.5 ± 2.31 µM. This molecule also returned an IC50 with MCF-7 cells of more than 20 µM. The molecule also yielded a 50% inhibitory concentration (IC50) with PC-3 cells of more than 20 µM.

The molecule `CNC(=O)c1sccc1Nc1nc(Nc2ccc(NC(=O)C3CCC3)cc2)ncc1C(F)(F)F` [Compound 9m, 3-{2-[4-(Cyclobutanecarbonyl-amino)-phenylamino]-5-trifluoromethyl-pyrimidin-4-ylamino}-thiophene-2-carboxylic acid methylamide] displayed a melting point of 236.1 to 236.4 °C. For the same molecule, the inhibition at 1 µM at EGFR^wt-TK stood at 13.3 ± 0.83%. The molecule also showed a 50% inhibitory concentration (IC50) in the series on A549 cells of 15.1 ± 2.29 µM. In addition, the half-inhibitory concentration (IC50) with MCF-7 cells was more than 20 µM. For the same molecule, in the series on PC-3 cells, the 50% inhibitory concentration (IC50) is more than 20 µM.

Turning to `CNC(=O)c1sccc1Nc1nc(Nc2ccc(NC(=O)C3CCC(=O)CC3)cc2)ncc1C(F)(F)F` [Compound 9q, N-Methyl-3-((2-((4-(4-oxocyclohexane-1-carboxamido)phenyl)amino)-5-(trifluoromethyl)pyrimidin-4-yl)amino)thiophene-2-carboxamide], on EGFR^wt-TK, the inhibition at 1 µM was 35.5 ± 0.89%. In addition, the figures for the concentration for half-maximal inhibition (IC50) with A549 cells, with MCF-7 cells and in the series on PC-3 cells were 7.65 ± 0.39 µM, 10.6 ± 1.58 µM and more than 20 µM, respectively.

The values above are taken from PMC9542405, “Design, synthesis and antitumor activity of 5-trifluoromethylpyrimidine derivatives as EGFR inhibitors” (Journal of Enzyme Inhibition and Medicinal Chemistry, 2022).
